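Compound exposure: 48 hours, 5 concentrations, 96-well plates. GI50 = concentration required for 50% inhibition of growth.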 The source made the active and inactive calls. No stated cut-off is given here; in the data, active = GI50 up to about 1.1 µM and inactive = higher.
Experiments:
Experiment in all cases: NCI tumour cell line growth inhibition, 48 h
DMS-273 = system: DMS-273
A498 = system: A498
OVCAR-4 = system: OVCAR-4
HOP-62 = system: HOP-62
MOLT-4 = system: MOLT-4
K562 = system: K562
EKVX = system: EKVX
COLO 205 = system: COLO 205
XF498 = system: XF498
SK-MEL-28 = system: SK-MEL-28
SK-MEL-5 = system: SK-MEL-5
HT-29 = system: HT-29
SF-295 = system: SF-295
CAKI-1 = system: CAKI-1
KM-20L2 = system: KM-20L2
NCI-H226 = system: NCI-H226
HL-60 = system: HL-60
HCT-116 = system: HCT-116
TK-10 = system: TK-10
SF-539 = system: SF-539
SNB-78 = system: SNB-78
HCC 2998 = system: HCC 2998
SW-620 = system: SW-620
RXF 393 = system: RXF 393
LOX IMVI = system: LOX IMVI
CCRF-CEM = system: CCRF-CEM
786-0 = system: 786-0
DLD-1 = system: DLD-1
OVCAR-8 = system: OVCAR-8
U-251 = system: U-251
Malme-3M = system: Malme-3M
M14 = system: M14
UACC-257 = system: UACC-257
SNB-19 = system: SNB-19
HOP-18 = system: HOP-18
UO-31 = system: UO-31
SNB-75 = system: SNB-75
OVCAR-5 = system: OVCAR-5
M19-MEL = system: M19-MEL
UACC-62 = system: UACC-62
IGROV-1 = system: IGROV-1
NCI-H460 = system: NCI-H460
A549 = system: A549
SN12C = system: SN12C
SF-268 = system: SF-268
ACHN = system: ACHN
KM12 = system: KM12
SK-OV-3 = system: SK-OV-3
LXFL 529 = system: LXFL 529
HOP-92 = system: HOP-92
OVCAR-3 = system: OVCAR-3
NCI-H23 = system: NCI-H23
RPMI-8226 = system: RPMI-8226
SK-MEL-2 = system: SK-MEL-2
DMS-114 = system: DMS-114
HCT-15 = system: HCT-15
SR = system: SR
NCI-H522 = system: NCI-H522

## CC(=O)NC1=C(NC(C)(C)C)C(=O)c2ccccc2C1=O
DMS-273
  GI50: 26.1 µM (inactive)
A498
  GI50: 23.1 µM (inactive)
OVCAR-4
  GI50: 20.1 µM (inactive)
HOP-62
  GI50: 49.4 µM (inactive)
MOLT-4
  GI50: 6.43 µM (inactive)
K562
  GI50: 7.19 µM (inactive)
EKVX
  GI50: 28.2 µM (inactive)
COLO 205
  GI50: 83.4 µM (inactive)
XF498
  GI50: 11.1 µM (inactive)
SK-MEL-28
  GI50: 25.4 µM (inactive)
SK-MEL-5
  GI50: 18.2 µM (inactive)
HT-29
  GI50: 23.2 µM (inactive)
SF-295
  GI50: 42.7 µM (inactive)
CAKI-1
  GI50: 16.1 µM (inactive)
KM-20L2
  GI50: 18.7 µM (inactive)
NCI-H226
  GI50: 14.5 µM (inactive)
HL-60
  GI50: 2.23 µM (inactive)
HCT-116
  GI50: 28.7 µM (inactive)
TK-10
  GI50: 19.3 µM (inactive)
SF-539
  GI50: 15.8 µM (inactive)
SNB-78
  GI50: 31 µM (inactive)
HCC 2998
  GI50: > 100 µM (inactive)
SW-620
  GI50: 14.1 µM (inactive)
RXF 393
  GI50: 17.9 µM (inactive)
LOX IMVI
  GI50: 16.7 µM (inactive)
CCRF-CEM
  GI50: 2.35 µM (inactive)
786-0
  GI50: 3.4 µM (inactive)
DLD-1
  GI50: 15.9 µM (inactive)
OVCAR-8
  GI50: 20.3 µM (inactive)
U-251
  GI50: 37 µM (inactive)
Malme-3M
  GI50: 19.5 µM (inactive)
M14
  GI50: 17.1 µM (inactive)
UACC-257
  GI50: 15.9 µM (inactive)
SNB-19
  GI50: 43.2 µM (inactive)
HOP-18
  GI50: 14.8 µM (inactive)
UO-31
  GI50: 18.2 µM (inactive)
SNB-75
  GI50: 13.6 µM (inactive)
OVCAR-5
  GI50: 48.1 µM (inactive)
M19-MEL
  GI50: 15.4 µM (inactive)
UACC-62
  GI50: 13.7 µM (inactive)
IGROV-1
  GI50: 30.2 µM (inactive)
NCI-H460
  GI50: 19.2 µM (inactive)
A549
  GI50: 48.1 µM (inactive)
SN12C
  GI50: 18.2 µM (inactive)
SF-268
  GI50: 26.9 µM (inactive)
ACHN
  GI50: 86.1 µM (inactive)
KM12
  GI50: 30.3 µM (inactive)
SK-OV-3
  GI50: 54 µM (inactive)
LXFL 529
  GI50: 15.2 µM (inactive)
HOP-92
  GI50: 19.1 µM (inactive)
OVCAR-3
  GI50: 15.6 µM (inactive)
NCI-H23
  GI50: 18.7 µM (inactive)
RPMI-8226
  GI50: 11.7 µM (inactive)
SK-MEL-2
  GI50: 20.6 µM (inactive)
DMS-114
  GI50: 20.6 µM (inactive)
HCT-15
  GI50: 17.3 µM

## Cc1noc2c1C(=O)CCC2
OVCAR-4
  GI50: > 100 µM (inactive)
MOLT-4
  GI50: > 100 µM (inactive)
K562
  GI50: > 100 µM (inactive)
EKVX
  GI50: > 100 µM (inactive)
SR
  GI50: > 100 µM (inactive)
NCI-H522
  GI50: > 100 µM (inactive)
COLO 205
  GI50: > 100 µM (inactive)
XF498
  GI50: > 100 µM (inactive)
SK-MEL-28
  GI50: > 100 µM (inactive)
HT-29
  GI50: > 100 µM (inactive)
CAKI-1
  GI50: > 100 µM (inactive)
KM-20L2
  GI50: > 100 µM (inactive)
NCI-H226
  GI50: > 100 µM (inactive)
HL-60
  GI50: > 100 µM (inactive)
HCT-116
  GI50: > 100 µM (inactive)
TK-10
  GI50: > 100 µM (inactive)
SF-539
  GI50: > 100 µM (inactive)
SNB-78
  GI50: > 100 µM (inactive)
SW-620
  GI50: > 100 µM (inactive)
RXF 393
  GI50: > 100 µM (inactive)
LOX IMVI
  GI50: > 100 µM (inactive)
CCRF-CEM
  GI50: > 100 µM (inactive)
786-0
  GI50: > 100 µM (inactive)
DLD-1
  GI50: > 100 µM (inactive)
OVCAR-8
  GI50: > 100 µM (inactive)
Malme-3M
  GI50: > 100 µM (inactive)
M14
  GI50: > 100 µM (inactive)
UACC-257
  GI50: > 100 µM (inactive)
HOP-18
  GI50: > 100 µM (inactive)
UO-31
  GI50: > 100 µM (inactive)
SNB-75
  GI50: > 100 µM (inactive)
OVCAR-5
  GI50: > 100 µM (inactive)
M19-MEL
  GI50: > 100 µM (inactive)
UACC-62
  GI50: > 100 µM (inactive)
SN12C
  GI50: > 100 µM (inactive)
SF-268
  GI50: > 100 µM (inactive)
ACHN
  GI50: > 100 µM (inactive)
SK-OV-3
  GI50: > 100 µM (inactive)
LXFL 529
  GI50: > 100 µM (inactive)
HOP-92
  GI50: > 100 µM (inactive)
OVCAR-3
  GI50: > 100 µM (inactive)
RPMI-8226
  GI50: > 100 µM (inactive)
SK-MEL-2
  GI50: > 100 µM (inactive)
DMS-114
  GI50: > 100 µM (inactive)

## O=[N+]([O-])c1ccc(C2=Nn3c(nnc3-c3ccccc3)SC2)o1
DMS-273
  GI50: 20 µM (inactive)
A498
  GI50: > 100 µM (inactive)
OVCAR-4
  GI50: 19.6 µM (inactive)
HOP-62
  GI50: 44.3 µM (inactive)
MOLT-4
  GI50: 24.3 µM (inactive)
K562
  GI50: 20.4 µM (inactive)
EKVX
  GI50: 46.8 µM (inactive)
COLO 205
  GI50: 21.4 µM (inactive)
XF498
  GI50: 19.7 µM (inactive)
SK-MEL-28
  GI50: 29.2 µM (inactive)
SK-MEL-5
  GI50: 17.7 µM (inactive)
HT-29
  GI50: 23.7 µM (inactive)
SF-295
  GI50: 17.4 µM (inactive)
CAKI-1
  GI50: 19.9 µM (inactive)
KM-20L2
  GI50: 24.7 µM (inactive)
NCI-H226
  GI50: 58.6 µM (inactive)
HL-60
  GI50: 15.3 µM (inactive)
HCT-116
  GI50: 17.6 µM (inactive)
TK-10
  GI50: 19.6 µM (inactive)
SF-539
  GI50: 18.8 µM (inactive)
SNB-78
  GI50: 20.3 µM (inactive)
HCC 2998
  GI50: 18.9 µM (inactive)
SW-620
  GI50: 18 µM (inactive)
RXF 393
  GI50: 19.3 µM (inactive)
CCRF-CEM
  GI50: 3.6 µM (inactive)
786-0
  GI50: 20.8 µM (inactive)
DLD-1
  GI50: 14 µM (inactive)
OVCAR-8
  GI50: 19.3 µM (inactive)
U-251
  GI50: 17.4 µM (inactive)
Malme-3M
  GI50: 24.1 µM (inactive)
M14
  GI50: 17.6 µM (inactive)
UACC-257
  GI50: 20 µM (inactive)
SNB-19
  GI50: 85.5 µM (inactive)
HOP-18
  GI50: 19.5 µM (inactive)
SNB-75
  GI50: 20.4 µM (inactive)
OVCAR-5
  GI50: 29.6 µM (inactive)
M19-MEL
  GI50: 18.5 µM (inactive)
UACC-62
  GI50: 19.5 µM (inactive)
IGROV-1
  GI50: 21.8 µM (inactive)
NCI-H460
  GI50: 18.6 µM (inactive)
A549
  GI50: 35.2 µM (inactive)
SN12C
  GI50: 15.7 µM (inactive)
SF-268
  GI50: 20.2 µM (inactive)
ACHN
  GI50: 19.4 µM (inactive)
KM12
  GI50: 18 µM (inactive)
SK-OV-3
  GI50: > 100 µM (inactive)
LXFL 529
  GI50: 16.1 µM (inactive)
HOP-92
  GI50: 13.2 µM (inactive)
OVCAR-3
  GI50: 17.3 µM (inactive)
NCI-H23
  GI50: 20.6 µM (inactive)
RPMI-8226
  GI50: 5.81 µM (inactive)
SK-MEL-2
  GI50: 20.9 µM (inactive)
DMS-114
  GI50: 19.7 µM (inactive)
HCT-15
  GI50: 16.1 µM

Source: ChEMBL document CHEMBL1201862, “PubChem BioAssay data set” (2004)
